Data from US20250326753A1, “DUAL CXCR4-BTK INHIBITORS” (X4 Pharmaceuticals, Inc., priority 2022, published 2025).

molecular target: CXCR4 (Homo sapiens, UniProt P61073); test: Intracellular CXCL-12-induced calcium mobilization assay (FLIPR), U87.CXCR4 cells; assay type: cell-based; set-up: expressed in transfected cells; host or cells: U87 (U87.CXCR4); conditions: CXCL-12 25-50 ng/ml, read-out: IC50 CXCL-12 Ca2+ flux U87.CXCR4+
Procedure: Intracellular calcium mobilization induced by chemokines or chemokine-derived peptides were evaluated using a calcium responsive fluorescent probe and a FLIPR system. The CXCR-4 transfected U87 cell line (U87.CXCR4) cells were seeded in gelatine-coated black-wall 96-well plates at 20,000 cells per well and incubated for 12 hours. Cells were then loaded with the fluorescent calcium probe Fluo-2 acetoxymethyl at 4 μM final concentration in assay buffer (Hanks' balanced salt solution with 20 mM HEPES buffer and 0.2% bovine serum albumin, pH 7.4) for 45 min at 37° C. The intracellular calcium mobilization induced by the CXCL-12 (25-50 ng/ml) was then measured at 37° C. by monitoring the fluorescence as a function of time in all the wells simultaneously using a fluorometric imaging plate reader (FLIPR Tetra, Molecular Devices).

CXCR4, sequence (P61073 whole entry): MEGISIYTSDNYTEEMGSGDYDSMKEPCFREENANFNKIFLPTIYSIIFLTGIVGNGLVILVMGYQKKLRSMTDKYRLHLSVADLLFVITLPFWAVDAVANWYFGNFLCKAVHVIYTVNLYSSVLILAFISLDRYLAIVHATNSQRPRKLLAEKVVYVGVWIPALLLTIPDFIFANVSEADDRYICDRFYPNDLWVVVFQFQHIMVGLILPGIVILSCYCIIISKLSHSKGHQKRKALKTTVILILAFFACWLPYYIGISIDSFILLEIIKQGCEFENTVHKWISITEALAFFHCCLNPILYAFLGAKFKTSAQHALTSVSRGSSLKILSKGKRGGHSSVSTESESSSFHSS

Structure (SMILES) | IC50
Cc1cc(-c2ccnc(Nc3cnn(CCCCN4[C@@H](c5ncccc5C)CCC[C@H]4c4ncccc4C)c3)n2)ccc1CNC(=O)N1CC(OC(C)C)C1 [Compound I-29] | > 2500 nM

molecular target: T1, BTK (Bruton tyrosine kinase) (Homo sapiens, UniProt Q06187); test: BTK screening assay (33PanQinase Activity Assay, radiometric); assay type: biochemical; conditions: not given
T1 construct: GST or His (the text leaves open which); purchased Reaction Biology Europe GmbH Lot 012,11; host or cells: Sf9 insect cells or E. coli (not resolved)
T1 sequence (Q06187 whole entry): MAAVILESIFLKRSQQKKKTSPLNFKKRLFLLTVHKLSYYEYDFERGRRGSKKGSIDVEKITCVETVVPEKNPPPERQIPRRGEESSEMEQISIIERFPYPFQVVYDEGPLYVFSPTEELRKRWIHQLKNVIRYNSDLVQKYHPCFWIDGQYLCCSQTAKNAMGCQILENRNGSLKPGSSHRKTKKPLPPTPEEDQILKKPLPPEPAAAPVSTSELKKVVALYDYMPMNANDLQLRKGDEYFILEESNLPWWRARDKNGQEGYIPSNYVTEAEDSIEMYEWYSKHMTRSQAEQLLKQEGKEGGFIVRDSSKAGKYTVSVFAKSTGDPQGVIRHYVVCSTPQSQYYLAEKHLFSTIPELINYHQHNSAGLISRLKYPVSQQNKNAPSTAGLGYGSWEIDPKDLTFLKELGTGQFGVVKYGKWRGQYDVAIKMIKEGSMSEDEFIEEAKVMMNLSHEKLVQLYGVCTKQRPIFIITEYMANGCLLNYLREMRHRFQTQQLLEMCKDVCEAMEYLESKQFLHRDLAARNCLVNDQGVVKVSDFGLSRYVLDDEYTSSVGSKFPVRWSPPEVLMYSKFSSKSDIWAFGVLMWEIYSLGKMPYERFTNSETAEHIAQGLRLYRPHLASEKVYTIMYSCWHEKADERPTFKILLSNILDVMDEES
Procedure: Inhibition of BTK activity was evaluated using a radiometric protein kinase assay (33PanQinase® Activity Assay) to measure the activity of BTK (Bruton tyrosine kinase).
Kinase assays were performed in 96-well ScintiPlates™ from Perkin Elmer (Boston, MA, USA) in a 50 μL reaction volume. The reaction cocktail was pipetted in four steps in the following order: 10 μL of non-radioactive ATP solution (in H2O); 25 μL of assay buffer/[γ-^33P]-ATP mixture; 5 μL of compound test sample in 10% DMSO; 10 μL of enzyme/substrate mixture.
BTK kinase was expressed in Sf9 insect cells or in E. coli as recombinant GST-fusion proteins or His-tagged proteins, either as full-length or enzymatically active fragments from human cDNAs, and purified by either GSH-affinity chromatography or immobilized metal. Purity was examined by SDS-PAGE/Coomassie staining, and identity confirmed by mass spectroscopy.
The reaction cocktails were incubated at 30° C. for 60 minutes. The reaction was stopped with 50 μL of 2% (v/v) H3PO4, plates were aspirated and washed two times with 200 μL 0.9% (w/v) NaCl. Incorporation of ^33Pi (counting of “cpm”) was determined with a microplate scintillation counter (Microbeta, Wallac).
The median value of the counts in wells containing assay buffer without enzyme, and without test compound was defined as “low control.” This value reflects unspecific binding of radioactivity to the plate in the absence of a protein kinase but in the presence of the substrate. The median value of the counts in wells containing assay buffer without test compound was defined as the “high control,” i.e. full activity in the absence of any inhibitor. The difference between high and low control was taken as 100% activity. Residual activity (in %) was calculated using the following formula: Res. Activity (%)=100×[(cpm of compound-low control)/(high control-low control)].
The fitting method used was a least-squares fit.

Structure (SMILES) | IC50
Cc1cccnc1[C@H]1CCC[C@@H](c2ncccc2C)N1CCNC(=O)c1cc2c(-c3cccc(NC(=O)c4ccccc4)c3C)ncnc2[nH]1 [Compound I-74] | > 2500 nM

same assay, conditions: Inhibition of BTK, radiometric 33PanQinase Activity Assay, 3 μM ATP, 10 concentrations in singlicate, top 10 μM; read-out: 33PanQinase ® Radiometric IC50

Structure (SMILES) | IC50
Cc1cc(-c2ccnc(Nc3cnn(CCCCN4[C@@H](c5ncccc5C)CCC[C@H]4c4ncccc4C)c3)n2)ccc1CNC(=O)N1CC(OC(C)C)C1 [Compound I-29] | 1 to 100 nM
Cc1cc(-c2ncnc3[nH]c(C(=O)NCCCCN4[C@@H](c5ncccc5C)CCC[C@H]4c4ncccc4C)cc23)ccc1CNC(=O)c1ccccc1 [Compound I-47] | 1 to 100 nM
CCc1ccc(C(=O)NCc2ccc(-c3ncnc4[nH]c(C(=O)NCCCCN5[C@@H](c6ncccc6C)CCC[C@H]5c5ncccc5C)cc34)cc2C)cc1 [Compound I-48] | 1 to 100 nM
Cc1cc(-c2ncnc3[nH]c(C(=O)NCCCCN4[C@@H](c5ncccc5C)CCC[C@H]4c4ncccc4C)cc23)ccc1CNC(=O)c1ccc(F)cc1 [Compound I-49] | 1 to 100 nM
Cc1cc(-c2ncnc3[nH]c(C(=O)NCCCN4[C@@H](c5ncccc5C)CCC[C@H]4c4ncccc4C)cc23)ccc1CNC(=O)c1ccccc1 [Compound I-50] | 1 to 100 nM
CCc1ccc(C(=O)NCc2ccc(-c3ncnc4[nH]c(C(=O)NCCCN5[C@@H](c6ncccc6C)CCC[C@H]5c5ncccc5C)cc34)cc2C)cc1 [Compound I-51] | 1 to 100 nM
Cc1cc(-c2ncnc3[nH]c(C(=O)NCCCN4[C@@H](c5ncccc5C)CCC[C@H]4c4ncccc4C)cc23)ccc1CNC(=O)c1ccc(F)cc1 [Compound I-52] | 1 to 100 nM
CCOC1CN(C(=O)NCc2ccc(-c3ccnc(Nc4cnn(CCN5[C@@H](c6ncccc6C)CCC[C@H]5c5ncccc5C)c4)n3)cc2C)C1 [Compound I-53] | 1 to 100 nM
COC1CN(C(=O)NCc2ccc(-c3ccnc(Nc4cnn(CCCN5[C@@H](c6ncccc6C)CCC[C@H]5c5ncccc5C)c4)n3)cc2C)C1 [Compound I-54] | 1 to 100 nM
CCOC1CN(C(=O)NCc2ccc(-c3ccnc(Nc4cnn(CCCN5[C@@H](c6ncccc6C)CCC[C@H]5c5ncccc5C)c4)n3)cc2C)C1 [Compound I-55] | 1 to 100 nM
Cc1cc(-c2ccnc(Nc3cnn(CCCN4[C@@H](c5ncccc5C)CCC[C@H]4c4ncccc4C)c3)n2)ccc1CNC(=O)N1CC(OC(C)(C)C)C1 [Compound I-56] | 1 to 100 nM
Cc1cc(-c2ccnc(Nc3cnn(CCCN4[C@@H](c5ncccc5C)CCC[C@H]4c4ncccc4C)c3)n2)ccc1CNC(=O)N1CC(OC(F)(F)F)C1 [Compound I-57] | 1 to 100 nM
Cc1ccc(Oc2ccc(C(=O)c3c[nH]c4ncnc(N[C@@H]5CC[C@@H](C(=O)NCCCCN6[C@@H](c7ncccc7C)CCC[C@H]6c6ncccc6C)OC5)c34)c(Cl)c2)cc1 [Compound I-58] | 1 to 100 nM
Cc1cccc(Oc2ccc(C(=O)c3c[nH]c4ncnc(N[C@@H]5CC[C@@H](C(=O)NCCCCN6[C@@H](c7ncccc7C)CCC[C@H]6c6ncccc6C)OC5)c34)c(Cl)c2)c1 [Compound I-59] | 1 to 100 nM
Cc1ccccc1Oc1ccc(C(=O)c2c[nH]c3ncnc(N[C@@H]4CC[C@@H](C(=O)NCCCCN5[C@@H](c6ncccc6C)CCC[C@H]5c5ncccc5C)OC4)c23)c(Cl)c1 [Compound I-60] | 1 to 100 nM
Cc1cccnc1[C@H]1CCC[C@@H](c2ncccc2C)N1CCN1CCN(C(=O)c2ccc(-c3cc4c(-c5cccc(NC(=O)c6ccc(F)cc6)c5C)ncnc4[nH]3)cc2)CC1 [Compound I-67] | 1 to 100 nM
Cc1cccnc1[C@H]1CCC[C@@H](c2ncccc2C)N1CCN1CCN(C(=O)c2ccc(-c3cc4c(-c5cccc(NC(=O)c6ccccc6F)c5C)ncnc4[nH]3)cc2)CC1 [Compound I-68] | 1 to 100 nM
CC(=O)Nc1cccc(-c2ncnc3[nH]c(-c4ccc(C(=O)N5CCN(CCN6[C@@H](c7ncccc7C)CCC[C@H]6c6ncccc6C)CC5)cc4)cc23)c1C [Compound I-69] | 1 to 100 nM
Cc1cccnc1[C@H]1CCC[C@@H](c2ncccc2C)N1CCN1CCN(C(=O)c2ccc(-c3cc4c(-c5cccc(NC(=O)C(C)(C)C)c5C)ncnc4[nH]3)cc2)CC1 [Compound I-70] | 100 to 1000 nM
Cc1cccnc1[C@H]1CCC[C@@H](c2ncccc2C)N1CCN1CCN(C(=O)[C@]23C[C@](c4cc5c(-c6cccc(NC(=O)c7ccccc7)c6C)ncnc5[nH]4)(C2)C3)CC1 [Compound I-71] | 1000 to 2500 nM

Structure (SMILES) | IC50
Cc1cccnc1C1CCCCN1CCN1CCN(C(=O)c2ccc(-c3cc4c(-c5cccc(NC(=O)c6ccccc6)c5C)ncnc4[nH]3)cc2)CC1 (centres unmarked) [Compound I-73] | 100 to 1000 nM
Cc1cccnc1[C@H]1CCC[C@@H](c2ncccc2C)N1CCCNC(=O)c1cc2c(-c3cccc(NC(=O)c4ccccc4)c3C)ncnc2[nH]1 [Compound I-75] | > 2500 nM
Cc1cccnc1[C@H]1CCC[C@@H](c2ncccc2C)N1CCCCNC(=O)c1cc2c(-c3cccc(NC(=O)c4ccccc4)c3C)ncnc2[nH]1 [Compound I-76] | > 2500 nM
Cc1cccnc1[C@H]1CCC[C@@H](c2ncccc2C)N1CCNC1CN(C(=O)c2cc3c(-c4cccc(NC(=O)c5ccccc5)c4C)ncnc3[nH]2)C1 [Compound I-77] | > 2500 nM
Cc1cccnc1[C@H]1CCC[C@@H](c2ncccc2C)N1CCCNC1CN(C(=O)c2cc3c(-c4cccc(NC(=O)c5ccccc5)c4C)ncnc3[nH]2)C1 [Compound I-78] | > 2500 nM
Cc1cccnc1[C@H]1CCC[C@@H](c2ncccc2C)N1CCCCNC1CN(C(=O)c2cc3c(-c4cccc(NC(=O)c5ccccc5)c4C)ncnc3[nH]2)C1 [Compound I-79] | > 2500 nM
Cc1cc(-c2ncnc3[nH]c(C(=O)NCCN4[C@@H](c5ncccc5C)CCC[C@H]4c4ncccc4C)cc23)ccc1CNC(=O)c1ccc(F)cc1 [Compound I-80] | 100 to 1000 nM
Cc1cc(-c2ncnc3[nH]c(C(=O)NCCN4[C@@H](c5ncccc5C)CCC[C@H]4c4ncccc4C)cc23)ccc1CNC(=O)c1cccc(F)c1 [Compound I-81] | 100 to 1000 nM
Cc1cc(-c2ncnc3[nH]c(C(=O)NCCCN4[C@@H](c5ncccc5C)CCC[C@H]4c4ncccc4C)cc23)ccc1CNC(=O)c1cccc(F)c1 [Compound I-82] | 100 to 1000 nM
Cc1cc(-c2ncnc3[nH]c(C(=O)NCCCCN4[C@@H](c5ncccc5C)CCC[C@H]4c4ncccc4C)cc23)ccc1CNC(=O)c1cccc(F)c1 [Compound I-83] | 100 to 1000 nM
Cc1cc(-c2ncnc3[nH]c(C(=O)NCCN4[C@@H](c5ncccc5C)CCC[C@H]4c4ncccc4C)cc23)ccc1CNC(=O)c1cc(F)cc(F)c1 [Compound I-84] | 100 to 1000 nM
Cc1cc(-c2ncnc3[nH]c(C(=O)NCCCN4[C@@H](c5ncccc5C)CCC[C@H]4c4ncccc4C)cc23)ccc1CNC(=O)c1cc(F)cc(F)c1 [Compound I-85] | 100 to 1000 nM
Cc1cc(-c2ncnc3[nH]c(C(=O)NCCCCN4[C@@H](c5ncccc5C)CCC[C@H]4c4ncccc4C)cc23)ccc1CNC(=O)c1cc(F)cc(F)c1 [Compound I-86] | 100 to 1000 nM
Cc1cccnc1[C@H]1CCC[C@@H](c2ncccc2C)N1CCNC(=O)c1cc2c(-c3cccc(NC(=O)c4ccc(F)cc4)c3C)ncnc2[nH]1 [Compound I-87] | > 2500 nM
Cc1cccnc1[C@H]1CCC[C@@H](c2ncccc2C)N1CCCNC(=O)c1cc2c(-c3cccc(NC(=O)c4ccc(F)cc4)c3C)ncnc2[nH]1 [Compound I-88] | > 2500 nM
Cc1cccnc1[C@H]1CCC[C@@H](c2ncccc2C)N1CCCCNC(=O)c1cc2c(-c3cccc(NC(=O)c4ccc(F)cc4)c3C)ncnc2[nH]1 [Compound I-89] | > 2500 nM
Cc1cccnc1[C@H]1CCC[C@@H](c2ncccc2C)N1CCNC1CN(C(=O)c2cc3c(-c4cccc(NC(=O)c5ccc(F)cc5)c4C)ncnc3[nH]2)C1 [Compound I-90] | > 2500 nM
Cc1cccnc1[C@H]1CCC[C@@H](c2ncccc2C)N1CCCNC1CN(C(=O)c2cc3c(-c4cccc(NC(=O)c5ccc(F)cc5)c4C)ncnc3[nH]2)C1 [Compound I-91] | > 2500 nM
Cc1cccnc1[C@H]1CCC[C@@H](c2ncccc2C)N1CCCCNC1CN(C(=O)c2cc3c(-c4cccc(NC(=O)c5ccc(F)cc5)c4C)ncnc3[nH]2)C1 [Compound I-92] | 1000 to 2500 nM
